Literature values, collected in patent US12280046B2, “Melanocortin subtype-2 receptor (MC2R) antagonist for the treatment of disease” (Crinetics Pharmaceuticals, Inc., priority 2021, dated 2025).
Starred links: 1 amine or outer side, 2 acyl side, 3 side chain; linkers in the order of their positions; H or OH if unused. Non-standard residues stand in square brackets, D forms with d. Residues, ends and D or L forms follow the SMILES beside them. Groups on a side chain read outwards from the residue. *: point of attachment. Ethylenediamine = C(CN[*:2])N[*:1]; Hyp = O=C(O)[C@@H]1C[C@@H](O)CN1; Phg = N[C@H](C(=O)O)c1ccccc1; CO = O=C([*:1])[*:2]; Bn = c1ccc(C*)cc1

Experiments:
[1] = assumption for full suppression curve; cited from earlier work
[2] = Phase 3 trial; cited from earlier work

SMILES | half-life [1] [h] | patients achieving normalization of urinary free cortisol [2] | patients with a hyperglycemia-related adverse event [2] [%]
C[C@]12CCC(=O)C=C1CC[C@@H]1[C@@H]2[C@@H](O)C[C@@]2(C)[C@H]1CC[C@]2(O)C(=O)CO [cortisol] | 1.1 ± 0.3 |  | 
NCCCC[C@@H]1NC(=O)[C@@H](Cc2c[nH]c3ccccc23)NC(=O)[C@H](c2ccccc2)NC(=O)[C@@H]2C[C@@H](OC(=O)NCCN)CN2C(=O)[C@H](Cc2ccccc2)NC(=O)[C@H](Cc2ccc(OCc3ccccc3)cc2)NC1=O [pasireotide] (cyclo([Hyp]([CO-Ethylenediamine])[Phg][dW]KY(Bn)F)) |  | 15-26% | 73
